Patent US20250320496A1, “MODULATION OF ABCB11 GENE TRANSCRIPTION USING ANTISENSE OLIGONUCLEOTIDES TARGETING REGULATORY RNAS” (CAMP4 Therapeutics Corporation, priority 2022, published 2025)
Strand notation (5' to 3'): a small letter for the sugar, then the base; units joined by * are phosphorothioate-linked, units joined directly phosphodiester-linked; [ ] holds rarer units or linkages, { } end groups; capitals alone tell only the bases. e = 2'-O-(2-methoxyethyl) (MOE); {TEG} = Teg-GalNAc conjugate; [5mC] = 5-methylcytosine

Key:
human ABCB11 mRNA [1] = assay: Liver-humanized FRG knockout mice, human ABCB11 mRNA in liver by qPCR; assay type: in vivo
Method: (§1) In a first in vivo study, female liver-humanized FRG® (Fah^−/−; Rag2^−/−; Il2rg^−/−) knockout mice (Yecuris™) were used to assess the efficacy of the human ABCB11 regRNA-targeting ASOs CO-3986 and CO-4535 in the context of cholestasis. The mice were grouped evenly based on albumin and body weight.
A. First Study. Two groups of five mice were dosed with GalNAc3—CO-7378 (CO-3986 conjugated to GalNAc3) or GalNAc3—CO-7379 ([…]) respectively, control via subcutaneous (SC) injection on Days 0 and 7. One group of five mice was dosed with PBS control via SC injection on Days 0 and 7. […] The serum (two tubes for each animal, 15 μL and 25 μL, for each timepoint) was analyzed using LC-MS (Creative Proteomics) to assess bile acids and 7αC4 levels. The remaining samples collected were analyzed for total serum bile acid levels using a commercial kit. […]
(§2) Frozen liver pieces were pulverized on dry ice and RNA extracted using TRIzol™ reagent. cDNA was generated and analyzed using qPCR to detect ABCB11 mRNA levels and other genes of interest as described above. Serum 7αC4 levels were detected using LC-MS (Creative Proteomics). Total serum bile acids were measured using the Total Bile Acid Fluorometric Assay Kit (Cell BioLabs). Liver bile acids were measured using the Total Bile Acid Fluorometric Assay Kit.

bile acids = assay: Liver-humanized FRG knockout mice, liver and serum bile acids; assay type: in vivo, mouse
Method: as §1
A. First Study. Two groups of five mice were dosed with GalNAc3—CO-7378 (CO-3986 conjugated to GalNAc3) or GalNAc3—CO-7379 ([…]) respectively, control via subcutaneous (SC) injection on Days 0 and 7. One group of five mice was dosed with PBS control via SC injection on Days 0 and 7. A fourth group of five mice was treated with ursodeoxycholic acid (UDCA) via intraperitoneal (IP) injection on Days 14-21. […] On Day 21, the animals were euthanized for terminal harvest after fasting overnight and >350 μL of whole blood was processed to serum. 100 μL of whole blood was collected in the same manner as the previous bleeds, prior to euthanasia and final exsanguination. Harvested livers were perfused with cold PBS with the left lobe and remnant liver frozen separately after bile salt collection. A piece of the ileum tissue was removed and flushed with PBS and snap-frozen. The serum (two tubes for each animal, 15 μL and 25 μL, for each timepoint) was analyzed using LC-MS (Creative Proteomics) to assess bile acids and 7αC4 levels. The remaining samples collected were analyzed for total serum bile acid levels using a commercial kit.
(§3) B. Second Study. In a second in vivo study was conducted to assess the ability of CO-11202 (CO-12367 conjugated with GalNAc3). Mice were dosed with […] on Days 0 and 7 via SC injection. One group of five mice were dosed with PBS control via SC injection on Days 0 and 7. One group of five mice received 10 mg/kg of obeticholic acid (OCA) via oral gavage daily for 21 days. Fasting blood was collected from the mice on Days 0, 7, 14 and 21 (collection performed prior to any SC injections) and processed to serum to analyze bile acid levels. On Day 21, mice were euthanized and livers and ileum tissue harvested and processed as described above.
as §2

bile acid efflux in PHHs = assay: In vitro biliary clearance assay (B-CLEAR) in PHHs, d8-TCA by LC-MS; assay type: cell-based, human
Method: The ACCULIVER™ Human Biliary Clearance Kit (also known as the B-CLEAR® assay; BioIVT) was used to assess bile acid efflux in PHHs after ASO treatment. On Day 0, 4×10^5 cells were plated in 24-well collagen-coated plates and QualGro medium containing […] matrix and ASO was added 4 hrs. later. On Day 2, medium was refreshed. On Day 3, cells from some wells were harvested for RNA analysis using 350 μl Buffer RLT lysis buffer, and lysates frozen at −80° C. for later RNA extraction. On Day 4, cells in the remaining wells had medium refreshed. On Day 6, the assay was performed according to the manufacturer's instructions. Briefly, cells were conditioned with Plus or Minus Buffers provided with the assay for 10 minutes, followed by addition of deuterium-labelled sodium taurocholate (d8-TCA) for 10 mins. Cells were washed 3 times, and frozen after the final wash. Analysis of d8-TCA was performed using liquid chromatography-mass spectrometry (LC-MS) (BioIVT). Calculations of bile acid clearance were made from the resulting LC-MS data according to the manufacturer's instructions.

CYP7A1 mRNA = assay: ASO treatment of primary human hepatocytes (PHH), CYP7A1 mRNA by RT-qPCR normalized to B2M; assay type: cell-based
Method: Primary human hepatocytes (PHH) were thawed using Lonza Human Cryopreserved Hepatocyte Thawing Medium and plated in 96-well collagen-coated plates (5.5-6.0×10^4 cells per well). Four hours later, the media was replaced with sterile-filtered QualGro™ Hepatocyte Culture Medium (BioIVT) containing antibiotic supplement, 0.3 mg/ml Matrigel® matrix (Corning®), and ASO at the desired concentration (e.g., 1.25 μM, 2.5 μM, 5 μM, or 10 μM). […] Plates were frozen at-80° C. during cell lysis. After thawing, total RNA was isolated using the Qiagen RNEasy kit as instructed by manufacturer. cDNA (random-primed) was synthesized from 10 μl of RNA using the LifeTech High Capacity cDNA Reverse Transcription kit. 2 μl of cDNA was used for reverse transcription-quantitative PCR (RT-qPCR) analyses using standard Taqman” reagents from Applied Biosystems™ to measure ABCB11 and CYP7A1 gene expression. Gene expression data was normalized to the housekeeper gene, beta-2-microglobulin (B2M).
ASOs targeting ABCB11 regRNA enhance bile acid efflux in vitro. Levels of cholesterol 7 alpha-hydroxylase (CYP7A1) mRNA (or the enzymatic activity of its protein) can be used to track changes in bile acid synthesis in the liver since the CYP7A1 protein is the first and rate-limiting step in the conversion of cholesterol to bile acids (see, e.g., Chiang and Ferrel (2020) Liver Res. 4 (2): 47-63). […] Conversely, when bile acid levels reach high levels, this gene is actively down regulated. These changes are mediated by farnesoid X receptor (FXR), a sensor of bile acid levels, and the master regulator of intracellular bile acid concentrations. CYP7A1 mRNA can therefore be used as a surrogate for monitoring changes in hepatic bile acids in response to ASO treatment. Accordingly, an ASO that successfully increases ABCB11 expression would be expected to promote increased bile acid efflux, thus reducing bile acid levels in the cell. In a wild-type (non-disease) setting, this reduction promotes a compensatory increase in CYP7A1 to restore normal levels.

human ABCB11 mRNA [2] = assay: ASO treatment of primary human hepatocytes (PHH), ABCB11 mRNA by RT-qPCR normalized to B2M; assay type: cell-based; set-up: ABCB11 mRNA, dose titration: unit of the concentration uncertain
In short: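 Plated primary human hepatocytes were treated 4 h post-thaw with ASO (e.g., 1.25–10 μM; initial screen 5 μM) in medium containing 0.3 mg/ml Matrigel for 72 hrs. Total RNA was reverse-transcribed and ABCB11 mRNA measured by Taqman RT-qPCR, normalized to B2M, with fold change versus untreated PHHs.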

mouse Abcb11 mRNA = assay: Liver-humanized FRG knockout mice, mouse Abcb11 mRNA in liver; assay type: in vivo; settings: second study, liver-humanized FRG knockout mice (FIG. 15A)
Method: as §3, §2

Substance | human ABCB11 expression (human ABCB11 mRNA [1]; first study, SC on Days 0 and 7) | liver bile acid efflux (bile acids; first study, liver-humanized FRG knockout mice) | ratio of liver bile acid (BA) to serum BA (bile acids; first study, liver-humanized FRG knockout mice (FIG. 9B)) | intracellular bile acids (bile acids; first study, liver-humanized FRG knockout mice, ASO-treated mice) | intracellular and extracellular bile acid levels (bile acid efflux in PHHs; 5 μM and 10 μM ASO, bile acid efflux assay (FIG. 7C)) | efflux of bile acids from the intracellular compartment to the bile cannuliculi (bile acid efflux in PHHs; B-CLEAR assay) | expression of CYP7A1 mRNA, dose response (CYP7A1 mRNA; PHHs (FIG. 3B)) | CYP7A1 expression (CYP7A1 mRNA; PHHs of the B-CLEAR experiment (FIG. 7B)) | ABCB11 expression (duplicate wells, qRT-PCR) (human ABCB11 mRNA [2]; PHHs of the B-CLEAR experiment, dose response (FIG. 7A)) | upregulation of ABCB11 mRNA (human ABCB11 mRNA [2]; PHHs, Day 3, normalized to untreated PHHs) | ABCB11 mRNA, dose titration (human ABCB11 mRNA [2]; PHHs, CO-3986 and CO-4529 tested at 2.5 (unit uncertain), 5 μM, and 10 μM) | ABCB11 mRNA FC (5 μM ASO vs. UNT) (human ABCB11 mRNA [2]; primary human hepatocytes, 5 μM ASO, normalized to untreated PHHs (UNT)) [fold change] | human ABCB11 expression (human ABCB11 mRNA [1]; second study, 10 mg/CO-12367 SC on Days 0 and 7) | serum bile acid levels (bile acids; second study, liver-humanized FRG knockout mice (FIG. 15B)) | mouse Abcb11 expression (mouse Abcb11 mRNA)
CO-3986: ASO targeting paRNA RR63 of human ABCB11 (antisense eT*eG*eT*eT*eT*eT*eG*e[5mC]*eT*eT*eG*eG*eT*e[5mC]*eA*eA*eG*eA*eG*eG) | increased human ABCB11 expression | increased efflux of bile acid | decreased ratio of liver bile acid (BA) to serum BA | lower levels of intracellular bile acids | reduced intracellular and extracellular bile acid levels | increased | increased expression of CYP7A1 mRNA in a dose-dependent manner | upregulated | increased ABCB11 expression | approximately 1.5 fold | dose-dependent increase | 1.27 |  |  | 
CO-12367: GalNAc3 conjugate counterpart of CO-11202, dosed SC in liver-humanized mice (antisense eT*eG*eTeT*eT*eT*eG*e[5mC]eT*eT*eG*eG*eTe[5mC]*eA*eA*eG*eAeG*eG-{TEG}) |  |  |  |  |  |  |  |  |  |  |  |  | increased human ABCB11 expression | decrease in serum bile acid levels | without affecting mouse Abcb11 expression
